Measured values: patent publication US4806532A, “Inhibition of epithelial phosphate transport” (Mayo Foundation for Medical Education and Research, priority 1985, dated 1989)
Counter-ions that a name gives are not always drawn.

Columns and labels:
Na-Pi cotransporter = molecular target: T1, Na-Pi cotransporter (Oryctolagus cuniculus, UniProt Q28620); assay: Na+-gradient-dependent 32Pi uptake by renal BBMV, rabbit; type: biochemical
T1 construct: were prepared from renal cortices of mongrel dogs, albino mice and New Zealand albino rabbits; from tissue; host or cells: New Zealand albino rabbit renal cortex, brush border membrane vesicles
T1 sequence (Q28620 1-642): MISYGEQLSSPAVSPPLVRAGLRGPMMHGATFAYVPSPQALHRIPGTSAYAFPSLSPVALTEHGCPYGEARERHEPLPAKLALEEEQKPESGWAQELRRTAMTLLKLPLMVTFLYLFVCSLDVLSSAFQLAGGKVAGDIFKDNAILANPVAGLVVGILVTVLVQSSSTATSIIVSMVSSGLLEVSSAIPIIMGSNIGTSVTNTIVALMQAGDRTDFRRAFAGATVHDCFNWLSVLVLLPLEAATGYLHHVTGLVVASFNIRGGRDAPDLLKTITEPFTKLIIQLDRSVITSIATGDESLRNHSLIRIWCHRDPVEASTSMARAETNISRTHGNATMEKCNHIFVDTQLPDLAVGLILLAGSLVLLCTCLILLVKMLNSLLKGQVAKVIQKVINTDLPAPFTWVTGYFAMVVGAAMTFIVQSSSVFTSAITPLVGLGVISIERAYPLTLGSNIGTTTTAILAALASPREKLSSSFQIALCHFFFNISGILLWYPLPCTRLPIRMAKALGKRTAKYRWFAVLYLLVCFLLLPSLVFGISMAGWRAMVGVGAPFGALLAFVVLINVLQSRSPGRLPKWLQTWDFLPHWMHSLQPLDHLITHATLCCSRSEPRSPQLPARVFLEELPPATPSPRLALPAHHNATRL
Procedure: The brush border membrane vesicles (BBMV) were prepared from renal cortical tissue of adult male Sprague-Dawley rats of an average body weight of about 220 grams. Rats were fed ad libitum standard rat chow containing 0.7% Pi and had free access to distilled water. Rats were sacrificed under anesthesia and dissected renal cortical tissue was used for preparation of BBMV fraction by the divalent cation-precipitation procedure, employed and described in detail in J. Clin. Invest., 67, 1347 (1981) and J. Biol. Chem., 258, 5695 (1983), with the following modifications: (a) MgCl2 instead of CaCl2 was added to crude homogenate (final concentration 10 mM MgCl2) to precipitate membranes other than BBMV; (b) in the final step, BBMV were washed and equilibrated in a medium of pH=7.5, instead of pH=8.5. The enrichment and specific activities of typical BBM enzymes alkaline phosphatase (APases), γ-glutyamyl transferase (γ-GTT), leucineaminopeptidase (LAP) and maltase with use of these modifications were similar as in BBMV fractions prepared in our previous studies. As a final step in the preparative procedure, the BBMV fraction was washed and resuspended in a medium containing 300 mM mannitol and 5 mM Tris-HEPES adjusted to pH=t.5, referred to as "MTH-medium," unless specified otherwise. The analogous BBMV fractions, using the same procedure, were prepared from renal cortices of mongrel dogs, albino mice and New Zealand albino rabbits.
The BBMV uptake of ^32 Pi, D-[^3 H]-glucose, L-[^3 H]-proline and ^22 Na^+ was measured by means of a rapid filtration technique, as described in J. Clin. Invest., 67, 1347 (1981) and Am. J. Physiol., 246, F133-F139 (1984). Also, unless specified otherwise, the medium for the solute uptake assay consisted of following compounds (in final concentrations): 100 mM mannitol, 100 mM NaCl (or 100 mM KC1) and 5 mM Tris-HEPES (pH=7.5) and eitehr 0.1 mM K2 H^32 PO4, or 0.05 mM D-[^3 H]-glucose, or 0.025 mM L-[^3 H]-proline. IN the ^22 Na^+ uptake studies, the assay medium contained 100 mM ^22 NaCl (^22 NaCl about […] per tube), 100 mM mannitol and 5 mM Tris-HEPES (pH 7.5).
In most experiments, the Na^+ -gradient-dependent ^32 Pi uptake in the concentrative "uphill" phase was measured at 20 seconds period. Since Na^+ -independent Pi uptake in this time period was quantitatively minor component (<5%) of the Na^+ -gradient-dependent Pi uptake, it was not routinely subtracted.

[1] = test system: thyroparathyroidectomized (TPTX) rats; assay: Urinary excretion of Pi and other electrolytes after TPFA in vivo; design: species or system rat; Phosphate excretion: unit not given here
Procedure: Surgically thyroparathyroidectomized (TPTX) rats of 180-220 g body wt (Johnson Laboratories, Chicago, IL) were placed in metabolic cages and were fed 15 g of the low phosphate (P =0.07%) diet (ICN, Cleveland, OH) and 25 ml distilled water per day prior to and throughout the study (J. Clin. Invest. 67, 1347 (1981)). The animals were weighed daily. Urine samples (24-hour period) were collected each day for determination of urine volue, creatinine, Pi, Ca^++, Na^+ and K^+. After stabilization of rats on the low phosphate diet for 4 days, the "experimental" group of rats were injected with TPFA (500 mg/kg b wt) intraperitoneally, divided in two daily doses, while the "control" rats received the vehicle only. TPFA for i.p. injection was dissolved in distilled water and the control animals were injected with the same volume of NaCl solution containing the equimolar amount of Na^+. When appropriate, the results were evaluated statistically using student's t-test for either group or paired comparisons. Values of P >0.05 were considered nonsignificant (NS).

[2] = Day 1 (baseline), experimental group, TPTX rats
[3] = Day 2, TPFA 500 mg/kg per day i.p. on day 2 and day 3, TPTX rats
[4] = Day 3, TPFA 500 mg/kg per day i.p. on day 2 and day 3, TPTX rats
[5] = Day 4, after TPFA 500 mg/kg per day i.p. on day 2 and day 3, TPTX rats

## O=C(O)P(=O)(O)O [TPFA, Phosphonoformic acid, trisodium salt hexahydrate]
Na-Pi cotransporter; 1 mM TPFA, control 551 ± 15
  32Pi-uptake 120 min: 532 ± 19 pmoles Pi/mg protein/time
Na-Pi cotransporter; 1 mM TPFA, control 768 ± 7
  32Pi-uptake 20 sec: 279 ± 4 pmoles Pi/mg protein/time
Na-Pi cotransporter; 5 mM TPFA
  32Pi-uptake 20 sec: 107 ± 5 pmoles Pi/mg protein/time
  32Pi-uptake 120 min: 549 ± 11 pmoles Pi/mg protein/time
Na-Pi cotransporter; 20 s, 1 mM TPFA, read-out: percent decrease of 20 sec 32Pi-uptake relative to control value
  inhibition at 1000 µM: 63.7%
Na-Pi cotransporter; 20 s, 5 mM TPFA, read-out: percent decrease of 20 sec 32Pi-uptake relative to control value
  inhibition at 5000 µM: 86.1%
[1]; [2]
  Calcium excretion: 0.3 ± 0.07 mmoles/mg creatinine
  Potassium excretion: 7.3 ± 1.0 mmoles/mg creatinine
  Sodium excretion: 6.8 ± 1.1 mmoles/mg creatinine
[1]; Day 1 (baseline, before injections on day 2 and 3), experimental group, TPTX rats on low phosphate diet, relative to creatinine, mean ± SEM of 8-9 rats
  Phosphate excretion: 11.8 ± 6.0
[1]; Day 2, TPFA 500 mg/kg per day i.p. in two doses on day 2 and day 3, TPTX rats, low phosphate diet, relative to creatinine
  Phosphate excretion: 30.8 ± 6.6
[1]; [3]
  Calcium excretion: 0.2 ± 0.09 mmoles/mg creatinine
  Potassium excretion: 7.6 ± 1.1 mmoles/mg creatinine
  Sodium excretion: 8.0 ± 1.1 mmoles/mg creatinine
[1]; Day 3, TPFA 500 mg/kg per day i.p. in two doses on day 2 and day 3, TPTX rats, significantly increased vs Day 1 (P < 0.025)
  Phosphate excretion: 122.1 ± 37.8
[1]; [4]
  Calcium excretion: 0.3 ± 0.2 mmoles/mg creatinine
  Potassium excretion: 11.8 ± 3.9 mmoles/mg creatinine
  Sodium excretion: 19.4 ± 11.6 mmoles/mg creatinine
[1]; [5]
  Calcium excretion: 0.6 ± 0.5 mmoles/mg creatinine
  Phosphate excretion: 79.8 ± 46.9
  Potassium excretion: 12.9 ± 5.3 mmoles/mg creatinine
  Sodium excretion: 15.1 ± 7.0 mmoles/mg creatinine
[1]; TPFA i.p. in two daily doses, TPTX rats on low phosphate diet, FIG. 3
  urinary excretion of Pi (in words): severalfold increase
[1]; TPFA i.p. in two daily doses, TPTX rats, same urine samples
  urinary excretion of Na+, K+ or calcium (in words): did not change
